Test results reported in PubChem BioAssay AID1645866 (Buhrlage Lab, Dana-Farber Cancer Institute and Novartis …, 2021).
pIC50: −log10 of the molar value. The source made the active and inactive calls.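 Rule for the calls: active = in confirmatory dose-response testing, peak deubiquitinase inhibition of 30% or more; inactive = the rest.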

The compounds below were run against Ubiquitin carboxyl-terminal hydrolase 28 (Homo sapiens) (UniProt Q96RU2) (assay: Ubiquitin-specific peptidase 28 DUB inhibitors, biochemical concentration-dependence assay, validation of primary screening hits (AID 1645866)). Conditions: purified USP28, ubiquitin-rhodamine fluorescence, 30 min.
Sequence of Ubiquitin carboxyl-terminal hydrolase 28 (Homo sapiens) (Q96RU2 whole entry, looked up): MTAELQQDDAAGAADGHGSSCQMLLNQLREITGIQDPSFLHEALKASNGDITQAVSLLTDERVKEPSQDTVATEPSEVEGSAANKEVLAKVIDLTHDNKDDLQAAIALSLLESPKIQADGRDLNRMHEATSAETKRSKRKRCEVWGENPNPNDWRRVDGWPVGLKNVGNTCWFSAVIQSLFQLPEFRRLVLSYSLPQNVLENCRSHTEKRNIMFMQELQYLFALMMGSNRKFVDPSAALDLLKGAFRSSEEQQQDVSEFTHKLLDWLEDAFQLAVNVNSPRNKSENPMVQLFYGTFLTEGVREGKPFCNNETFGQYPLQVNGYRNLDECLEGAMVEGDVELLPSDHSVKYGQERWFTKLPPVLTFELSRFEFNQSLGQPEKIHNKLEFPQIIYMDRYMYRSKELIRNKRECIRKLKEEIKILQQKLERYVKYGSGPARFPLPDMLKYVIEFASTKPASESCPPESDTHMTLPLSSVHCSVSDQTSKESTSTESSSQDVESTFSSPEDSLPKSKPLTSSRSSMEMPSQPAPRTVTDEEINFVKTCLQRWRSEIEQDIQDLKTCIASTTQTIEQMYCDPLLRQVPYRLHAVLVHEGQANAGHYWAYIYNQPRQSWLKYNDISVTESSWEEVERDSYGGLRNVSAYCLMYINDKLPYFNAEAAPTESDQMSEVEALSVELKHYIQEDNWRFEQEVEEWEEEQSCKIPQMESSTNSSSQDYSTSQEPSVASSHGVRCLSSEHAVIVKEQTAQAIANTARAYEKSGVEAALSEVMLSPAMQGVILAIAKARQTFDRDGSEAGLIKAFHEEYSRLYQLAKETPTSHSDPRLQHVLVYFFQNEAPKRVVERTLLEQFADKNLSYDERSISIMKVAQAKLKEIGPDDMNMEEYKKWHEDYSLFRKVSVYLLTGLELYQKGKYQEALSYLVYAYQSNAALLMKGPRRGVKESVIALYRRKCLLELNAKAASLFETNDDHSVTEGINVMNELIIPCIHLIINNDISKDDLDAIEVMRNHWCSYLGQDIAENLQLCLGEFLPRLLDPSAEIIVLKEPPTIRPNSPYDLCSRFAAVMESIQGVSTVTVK

SMILES | pIC50 | IC50
Cn1c(-c2nnc(SCC(=O)Nc3ccccc3F)o2)cc2ccccc21 | 4.75 | –
O=C(Nc1cc(-c2cccnc2)no1)c1ccc(F)c(F)c1 | 4.96 | –
COC1=CC(=O)c2c(O)c(C)c(CC(C)=O)c(O)c2C1=O | – | > 50 µM (inactive)
CNc1nc2c(c(=O)n1Cc1ccccc1)CN(C(=O)c1ccc(CN)cc1)CC2 | 4.32 | –
O=C(CN1C(=O)C2CCCC2=Nc2ccccc21)Nc1cc(F)ccc1F (stereo not drawn) | 4.87 | –
CCN1CCN(C(=O)CCCN(c2ccccc2)S(C)(=O)=O)CC1 | – | > 50 µM (inactive)
O=C(Nc1ccc2c(c1)OCCO2)c1cc(CN2CCCC2)on1 | 5.01 | –
CSc1nc2ncn(CC(=O)Nc3cccc(Cl)c3)c(=O)c2s1 | – | > 50 µM (inactive)
CC(C)N1CC2CN(Cc3ccc(Cl)cc3)CCN2Cc2ccccc21 (stereo not drawn) | – | > 50 µM (inactive)
O=C(/C=C/c1ccco1)c1cccc([N+](=O)[O-])c1 | 4.66 | –
CN(C)S(=O)(=O)c1ccc(N2CCCC2)c(C(=O)Nc2ccc(-c3cn4ccsc4n3)cc2)c1 | – | > 50 µM (inactive)
O=C(NCc1ccccc1)Nc1cccc2ccccc12 | 4.53 | –
Cc1nnc(Sc2cc(C(=O)NCCN3CCCC3)c3ccccc3n2)s1 | – | > 50 µM (inactive)
COc1ccc(CCNC(=O)c2cn(-c3ccc(F)cc3)nn2)cc1OC | 4.68 | –
Cc1cc(Nc2ccc(C(=O)NCc3ccco3)cc2)n2nc(-c3cccnc3)nc2n1 | 4.65 | –
O=C(CCn1c(=O)c2sccc2n(CC(=O)OCc2ccccc2)c1=O)NCc1ccc2c(c1)OCO2 | 4.74 | –
COc1ccc2c(c1)CCc1c-2n[nH]c1C(=O)Nc1cc(C)on1 | 4.91 | –
Cc1cc(C)c2cc3c(nc2c1)OC(=O)N(Cc1ccco1)C3 | 5.01 | –
Cc1nc(-c2cccc(NC(=O)c3ccccc3Cl)c2)no1 | 4.78 | –
Cc1cccc(NC(=O)CSc2nnc(-c3n[nH]c4c3CCC4)n2N)c1 | 4.57 | –
CN(CCc1ccccc1)c1nccc(N2CCN(C(=O)c3csc(-c4cccnc4)n3)CC2)n1 | – | > 50 µM (inactive)

SMILES | pIC50 | IC50
CC(C)NS(=O)(=O)c1ccc(CCC(=O)Nc2ccc3c(c2)OCCO3)cc1 | 5.95 | –
Cc1ccc(-c2nc(-c3cccs3)cc(C(F)(F)F)c2C#N)cc1 | – | > 50 µM (inactive)
Cc1cc(C)n(-c2cccc(C(=O)Nc3ccc4c(c3)CCN4S(C)(=O)=O)c2)n1 | 5.43 | –
Cc1c(-c2nsc(NC(=O)c3ccc(Cl)cc3)n2)nnn1-c1ccccc1F | 5.27 | –
CC(=O)c1ccc(N2C(=O)N(Cc3cccc([N+](=O)[O-])c3)c3ccccc3S2(=O)=O)cc1 | – | > 50 µM (inactive)
COc1ccc(NC(=O)c2ccccc2OCC(=O)Nc2ccccc2C(F)(F)F)c(C)c1 | 4.63 | –
Cc1nn(C)c2c1[C@@H](c1ccc(F)cc1)[C@H](NC(=O)c1ccccc1)C(=O)N2 | 4.80 | –
Cc1cc(C(=O)N2CCN(C3CCN(Cc4ccc(Cl)o4)CC3)C(=O)C2)c(C)o1 | – | > 50 µM (inactive)
Cc1cc(=O)n(CC(=O)Nc2ccccc2C)c(Nc2ccc(F)cc2)n1 | 4.71 | –
c1ccc(CCN2CCc3nc4cccnc4cc3C2)nc1 | – | > 50 µM (inactive)
Cc1cccc(NC(=O)CSc2ccc(-n3cnc(-c4ccccc4)c3)nn2)c1 | 4.78 | –
COC1=C(C2=C(OC)C(=O)c3cc4c(c(O)c3C2=O)C(=O)OC(C)C4)C(=O)c2c(cc3c(c2O)C(=O)OC(C)C3)C1=O (stereo not drawn) | 5.98 | –
COc1ccc(C)cc1NC(=O)C(NS(=O)(=O)c1ccc2c(c1)CCN2C(C)=O)C(C)C (stereo not drawn) | – | > 50 µM (inactive)
COc1ccccc1S(=O)(=O)N1CC[C@@H]2CN(C)[C@@H]2C1 | 4.45 | –
COc1ccc(CCNC(=O)c2noc3c2CCc2sccc2-3)cc1OC | 6.18 | –
Cc1cc(/C=C2/C(=N)N3C(c4ccccc4)=CSC3=NC2=O)c(C)n1-c1ccc2ccccc2c1 | – | > 50 µM (inactive)
O=C(Nc1ccc(Cl)cc1F)c1cc(-c2ccccn2)n[nH]1 | 5.77 | –
O=C(CC1Oc2ccccc2NC1=O)Nc1ccccc1Br (stereo not drawn) | 4.42 | –
Cn1c(=O)c(C(=O)CN2CCN(c3ccc(O)cc3)CC2)c(N)n(Cc2ccccc2)c1=O | 4.31 | –
CC1CCN(S(=O)(=O)c2ccc(C(=O)Nc3ccc(S(N)(=O)=O)cc3)cc2)CC1 | 4.52 | –
O=S(c1ccc2ccccc2c1)c1cnns1 (stereo not drawn) | – | > 50 µM (inactive)

SMILES | pIC50 | IC50
O=C(CC1C(=O)N(Cc2cccnc2)c2nc3ccccc3n21)Nc1cccc2ccccc12 (stereo not drawn) | – | > 50 µM (inactive)
Cc1nn(-c2ccc(Cl)cc2)c2[nH]c(=O)c(CNCC3CCCO3)cc12 (stereo not drawn) | – | > 50 µM (inactive)
CCOc1ccc(CCNC(=O)c2cccc3c2C(=O)N(CCOC)C3)cc1OCC | 4.79 | –
COc1ccc(NC2c3ccccc3C(=O)N2c2ccccn2)cc1 (stereo not drawn) | – | > 50 µM (inactive)
COc1ccc(OC)c2c(C)cc(N3CCN(S(=O)(=O)c4ccc5c(c4)CCCN5S(C)(=O)=O)CC3)nc12 | 4.75 | –
CCC(=O)Nc1ccc2c(c1)nc(CSc1nccc(C)n1)n2CC | 6.44 | –
COc1ccc2nc(SCC(=O)Nc3ccc(NC(C)=O)cc3)c(C)cc2c1 | 5.02 | –
C=C1CCC2[C@](C)(CCC[C@]2(C)C(=O)OC)[C@H]1CCc1ccoc1C[N+](C)(C)Cc1ccccc1 (stereo partly drawn) | 4.70 | –
CC(C)(C)c1ccc(C(=O)Nc2ccc(Oc3cccnc3)nc2)cc1 | 4.69 | –
Cc1noc(C)c1S(=O)(=O)Nc1ccc(C(=O)Nc2ccc3c(c2)OCCO3)cc1 | 5.42 | –
COCCCn1c(C(=O)NCCc2ccccc2)cc2c(=O)n3cccc(C)c3nc21 | 4.38 | –
Cc1ccc(NCc2cc3c(C(C)(C)C)nn(-c4ccc(Cl)cc4)c3[nH]c2=O)cc1 | 4.63 | –
COC(=O)CC1CC23OC2(C(=O)c2c(O)cccc2C3=O)C(C)O1 (stereo not drawn) | 5.45 | –
CC(=O)N1CCCC(c2nc(C)cc(-c3cc(F)ccc3C(=O)O)n2)C1 (stereo not drawn) | – | > 50 µM (inactive)
COc1cccc(NC(=O)c2cnc3c(c2)c(=O)n(C)c(=O)n3C)c1 | 5.61 | –
O=C(c1cnccn1)N1CCc2[nH]c3ccc(F)cc3c2C1 | – | > 50 µM (inactive)
Cc1cc(C(=O)Nc2ccc3c(c2)OCCO3)no1 | 5.02 | –
Cc1cc(C)nc(-n2nc(C)c3c2NC(=O)CSC3c2ccccc2F)n1 (stereo not drawn) | 4.47 | –
CCn1cc2c(n1)c(=O)n(Cc1ccc(C)cc1)c(=O)n2CC(=O)Nc1ccc(F)cc1 | 4.96 | –
O=C(COC(=O)c1ccc(Cl)cc1)Nc1ccc2[nH]c(=O)[nH]c2c1 | 5.04 | –
COc1ccc2nc(-c3ccc(NC(=O)c4cccc(OC)c4OC)cc3)cn2n1 | 5.61 | –

Other lines, results leading:

pIC50 | IC50 | SMILES
4.62 | – | c1ccc(-n2nnc(-c3noc(-c4ccccn4)n3)c2-c2ccncc2)cc1
5.53 | – | Fc1ccc(-c2noc(-c3nnc(NCc4cccnc4)c4ccccc34)n2)cc1
4.63 | – | CCc1ccccc1NC(=O)COc1ccccc1-c1nnc(-c2ccccc2)o1
4.62 | – | Cc1ccc(C(=O)CCC(=O)OCC(=O)c2ccc3[nH]c(=O)[nH]c3c2)cc1
4.57 | – | Cc1cccc(Cl)c1NC(=O)Nc1ccc(NC(=O)c2ccccc2O)cc1
5.27 | – | COc1ccc(-c2nc(-c3nnn(Cc4ccc(F)cc4)c3C)no2)c(OC)c1
5.71 | – | CCOC(=O)c1ccc(NC(=O)Cn2c(=O)n(CC(=O)NCCc3ccc(OC)c(OC)c3)c(=O)c3sccc32)cc1
4.36 | – | Cc1ccccc1C(=O)Nc1ccc(Cc2ccc(NC(=O)c3ccccc3C)c(O)c2)cc1O
4.63 | – | Cc1ccc2c(c1)[C@]1(C(=O)N2)[C@@H](C(=O)c2ccccc2)[C@]2(C(=O)Nc3ccccc32)[C@@H]2CCCN21
– | > 50 µM (inactive) | O=C(COc1nsnc1N1CCOCC1)Nc1ccccc1F
4.71 | – | COc1ccc(NC(=O)C2Oc3ccc(C)cc3NC2=O)cc1Cl (stereo not drawn)
– | > 50 µM (inactive) | O=C(CN(Cc1ccc(Cl)cc1)S(=O)(=O)c1ccc(Cl)cc1)N1CCOCC1
– | > 50 µM (inactive) | NC(=O)c1ccc(NC(=O)Cc2cc(-c3ccc(Cl)cc3)on2)cc1
5.30 | – | Cc1ccc(S(=O)(=O)N2CCCCC2)cc1NC(=O)Cc1cccc(F)c1
4.92 | – | O=C(Nc1ccc2c(c1)OCCO2)c1cc(CN2CCOCC2)on1
4.73 | – | CSc1ncc(C(=O)NC(C)c2ccccc2)c(-c2ccccc2)n1 (stereo not drawn)
4.62 | – | COc1ccc2[nH]cc(S(=O)(=O)c3ccc(C)c(F)c3)c(=O)c2c1
6.63 | – | COc1ccc2cc3c(nc2c1)OC(=O)N(CCc1cccc(F)c1)C3
4.82 | – | O=C(NCc1ccc(-c2nc3cnccc3o2)cc1)c1ccccc1F
4.60 | – | Cc1cc2c(cc1C)NC(CC(=O)Nc1ccc(O)cc1)C(=O)N2 (stereo not drawn)

pIC50 | IC50 | SMILES
4.65 | – | COc1cc(C#N)c(NC(=NCc2ccc(F)cc2)SC)cc1OC
4.95 | – | COc1cc(Cl)ccc1C(=O)Nc1cccc(-n2cnnn2)c1C
– | > 50 µM (inactive) | CC(=O)N1CCc2cc(S(=O)(=O)NCc3ccc(C)cc3)ccc21
5.13 | – | COc1cccc(NC(=O)c2nnn(-c3ccccc3)n2)c1
4.51 | – | COc1ccc(NC(=O)CS(=O)(=O)c2[nH]c(-c3ccc(C)cc3)nc2-c2ccccc2)cc1Cl
5.42 | – | Cc1ccc(/C=C/C(=O)Nc2ccc3c(c2)OCCO3)cc1
– | > 50 µM (inactive) | COc1ccc(C2CC(c3ccc(C)cc3)N(C(=O)C3CC3)c3ncnn32)cc1 (stereo not drawn)
4.44 | – | O=C(Cn1cncc(-c2nc(-c3ccccc3)cs2)c1=O)NC1CCCC1
4.66 | – | Cc1cc(=O)c2c(O)oc(O)c3c(O)cc(=O)c1c32
5.78 | – | CCOc1ccc(-c2ccc3nnc(SCC(=O)Nc4cccc(C(C)=O)c4)n3n2)cc1
5.17 | – | Cn1c2ccccc2c2ncn(Cc3ccc(F)cc3)c(=O)c21
4.37 | – | COc1ccc(-c2nc(Cn3nnc(C(=O)Nc4ccc(C)cc4C)c3N)c(C)o2)cc1
5.64 | – | Clc1cc2nc(N3CCN(c4ccccn4)CC3)c3nncn3c2cc1Cl
4.66 | – | O=C(Cc1cc(-c2ccc(F)cc2)on1)NCc1ccccc1
4.77 | – | CC(C)c1cc(NCc2ccccc2)n2nc(-c3cccnc3)nc2n1
– | > 50 µM (inactive) | O=[N+]([O-])c1ccc2c(c1)nc1n2CCN(Cc2ccco2)C1
4.67 | – | COc1cccc2c1OCC(C(=O)NCc1ccc(F)cc1)=C2
– | > 50 µM (inactive) | CC1(C)CC2CC(C)(CN2Cc2c(O)ccc3ccccc23)C1 (stereo not drawn)
5.89 | – | COc1ccc(NC(=O)c2cc(-c3cccnc3)n[nH]2)cc1Cl
5.38 | – | COc1ccc(N(CC(=O)NC2CCCCC2)C(=O)c2ccc(-c3ccccc3)[nH]2)cc1OC
